Blank lines part the entries; values can stand above or below the compound they belong to. Calls of active or inactive are those of the source. No cut-off for these calls is given here.
Tests used:
[1] = biological target: T1, Serine/threonine-protein kinase LATS (Homo sapiens) (UniProt Q9NRM7+O95835); assay: Inhibition of LATS in human limbal epithelial cells assessed as increase in YAP level at 10 uM incubated for 24 hrs by immunostaining based assay; settings: Epithelial cell
[2] = biological target: T1, Serine/threonine-protein kinase LATS (Homo sapiens); assay: Inhibition of LATS in human limbal epithelial cells assessed as reduction in YAP phosphorylation level at 10 uM incubated for 1 hr by Western blot analysis; type: cell-based; settings: Epithelial cell
[3] = biological target: T1, Serine/threonine-protein kinase LATS (Homo sapiens); assay: Inhibition of LATS in human limbal epithelial cells assessed as induction of limbal stem cell expansion by measuring p63alpha expression at 10 uM measured after 2 weeks by immunohistochemistry; type: cell-based
[4] = biological target: T1, Serine/threonine-protein kinase LATS (Homo sapiens); assay: Inhibition of LATS in human limbal epithelial cells assessed as induction of limbal stem cell expansion by measuring expansion factor ratio at 10 uM measured after 2 weeks by p63alpha expression detection based immunohistochemistry relative to control; design: scale not given: the % may be the effect or the level left
[5] = biological target: T1, Serine/threonine-protein kinase LATS (Homo sapiens); assay: Inhibition of LATS in human limbal epithelial cells assessed as induction of limbal stem cell expansion marker expression by measuring deltaN-p63-alphabetagamma protein expression at 10 uM incubated for 8 to 10 days by immunohistochemistry; type: cell-based
[6] = biological target: T1, Serine/threonine-protein kinase LATS (Homo sapiens); assay: Inhibition of LATS in human limbal epithelial cells assessed as induction of limbal stem cell expansion marker expression by measuring ABCG2 protein expression at 10 uM incubated for 8 to 10 days by immunohistochemistry; type: cell-based
[7] = biological target: T1, Serine/threonine-protein kinase LATS (Homo sapiens); assay: Inhibition of LATS in human limbal epithelial cells assessed as induction of limbal stem cell expansion marker expression by measuring C/EBPdelta protein expression at 10 uM incubated for 8 to 10 days by immunohistochemistry; type: cell-based
[8] = biological target: T1, Serine/threonine-protein kinase LATS (Homo sapiens); assay: Inhibition of LATS in human limbal epithelial cells assessed as induction of cell differentiation into corneal epithelial cells by measuring keratin-12 expression at 10 uM incubated for 8 to 10 days followed by medium change to DMEM medium without serum and compound for further incubation for 4 to 8 days by confocal microscopy; type: cell-based
[9] = biological target: T1, Serine/threonine-protein kinase LATS (Homo sapiens); assay: Inhibition of LATS in human corneal endothelium cells assessed as increase in YAP level at 10 uM incubated for 24 hrs by immunohistochemistry
[10] = biological target: T1, Serine/threonine-protein kinase LATS (Homo sapiens); assay: Inhibition of LATS in human corneal endothelium cells assessed as reduction in YAP phosphorylation at 10 uM incubated for 1 hr by Western blot analysis
[11] = biological target: T1, Serine/threonine-protein kinase LATS (Homo sapiens); assay: Inhibition of LATS in human corneal endothelium cells assessed as induction of cell proliferation measured every 3 hrs for 10 days
[12] = biological target: T1, Serine/threonine-protein kinase LATS (Homo sapiens); assay: Inhibition of LATS in human corneal endothelium cells assessed as induction of cell expansion by measuring cell density at 10 uM by Sytox orange dye based epifluorescence microscopy
[13] = biological target: T1, Serine/threonine-protein kinase LATS (Homo sapiens); assay: Inhibition of LATS in human corneal endothelium cells assessed as induction of tight junctions formation by measuring ZO1 expression at 10 uM incubated for 10 days by immunofluorescence staining based confocal microscopy
[14] = biological target: T1, Serine/threonine-protein kinase LATS (Homo sapiens); assay: Inhibition of LATS in human corneal endothelium cells assessed as induction of normal corneal endothelial cell morphology at 10 uM incubated for 10 days by immunofluorescence staining based confocal microscopy
[15] = biological target: T1, Serine/threonine-protein kinase LATS (Homo sapiens); assay: Inhibition of LATS in human corneal endothelium cells assessed as induction of cell expansion by measuring Collagen 8a2 gene expression at 10 uM incubated for 10 days by RT-PCR analysis
[16] = biological target: T1, Serine/threonine-protein kinase LATS (Homo sapiens); assay: Inhibition of LATS in human corneal endothelium cells assessed as induction of cell expansion by measuring AQP1 gene expression at 10 uM incubated for 10 days by RT-PCR analysis
[17] = biological target: T1, Serine/threonine-protein kinase LATS (Homo sapiens); assay: Inhibition of LATS in human corneal endothelium cells assessed as induction of cell expansion by measuring SLC4A11 gene expression at 10 uM incubated for 10 days by RT-PCR analysis
[18] = biological target: T1, Serine/threonine-protein kinase LATS (Homo sapiens); assay: Inhibition of LATS in human corneal endothelium cells assessed as induction of cell expansion by measuring Na/K ATPase protein expression at 10 uM incubated for 10 days by immunohistochemistry
[19] = biological target: T1, Serine/threonine-protein kinase LATS (Homo sapiens); assay: Inhibition of LATS in human corneal endothelium cells assessed as induction of cell expansion by measuring Collagen 8a2 protein expression at 10 uM incubated for 10 days by immunohistochemistry
Oryctolagus cuniculus [20] = organism: Oryctolagus cuniculus; assay: (§1) Induction of tissue regeneration in NZA rabbit with limbal stem cell deficiency transplanted with 10 uM compound treated human limbal stem cells assessed as induction of limbal stem cell population expansion by measuring regeneration of keratin-12-positive corneal epithelium using compound attached to contact lens using GelMA polymerization and delivered into corneal surface; type: functional, organism-based
Oryctolagus cuniculus [21] = organism: Oryctolagus cuniculus; assay: as §1, with “human mitochondrial protein expression in” for “measuring regeneration of keratin-12-positive”, “epithelium of transplanted eyes” for “epithelium”; type: functional, organism-based
[22] = Total drug level in cell pellets of human limbal stem cells by LC-MS analysis; type: ADME
[23] = Drug level in post wash cell pellets of human limbal stem cells by LC-MS analysis; type: ADME
Mus musculus [24] = assay: Inhibition of LATS in C57BL/6J mouse assessed as change in CTGF mRNA expression level at 30 mg/kg, po administered as single dose measured after 2 hrs by qRT-PCR analysis relative to control; type: functional
Mus musculus [25] = assay: Inhibition of LATS in C57BL/6J mouse assessed as change in Cyr61 mRNA expression level at 30 mg/kg, po administered as single dose measured after 2 hrs by qRT-PCR analysis relative to control; type: functional
Mus musculus [26] = assay: Inhibition of LATS in C57BL/6J mouse assessed as change in Ki67 protein expression level at 30 mg/kg, po administered as single dose measured after 24 hrs by immunohistochemistry analysis relative to control; type: functional
Mus musculus [27] = assay: Inhibition of LATS in C57BL/6J mouse assessed as change in CTGF mRNA expression level at 10 mg/kg, po administered as single dose measured after 2 hrs by qRT-PCR analysis relative to control; type: functional
Mus musculus [28] = assay: Inhibition of LATS in C57BL/6J mouse assessed as change in Cyr61 mRNA expression level at 10 mg/kg, po administered as single dose measured after 2 hrs by qRT-PCR analysis relative to control; type: functional
Mus musculus [29] = assay: Inhibition of LATS in C57BL/6J mouse assessed as change in Ki67 protein expression level at 10 mg/kg, po administered as single dose measured after 24 hrs by immunohistochemistry analysis relative to control; type: functional
[30] = biological target: T2, Serine/threonine-protein kinase LATS1 (Homo sapiens, UniProt O95835); assay: Inhibition of human LATS1 kinase domain (589 to 1130 amino acids) incubated for 30 mins by HTRF assay
T2 sequence (O95835 whole entry): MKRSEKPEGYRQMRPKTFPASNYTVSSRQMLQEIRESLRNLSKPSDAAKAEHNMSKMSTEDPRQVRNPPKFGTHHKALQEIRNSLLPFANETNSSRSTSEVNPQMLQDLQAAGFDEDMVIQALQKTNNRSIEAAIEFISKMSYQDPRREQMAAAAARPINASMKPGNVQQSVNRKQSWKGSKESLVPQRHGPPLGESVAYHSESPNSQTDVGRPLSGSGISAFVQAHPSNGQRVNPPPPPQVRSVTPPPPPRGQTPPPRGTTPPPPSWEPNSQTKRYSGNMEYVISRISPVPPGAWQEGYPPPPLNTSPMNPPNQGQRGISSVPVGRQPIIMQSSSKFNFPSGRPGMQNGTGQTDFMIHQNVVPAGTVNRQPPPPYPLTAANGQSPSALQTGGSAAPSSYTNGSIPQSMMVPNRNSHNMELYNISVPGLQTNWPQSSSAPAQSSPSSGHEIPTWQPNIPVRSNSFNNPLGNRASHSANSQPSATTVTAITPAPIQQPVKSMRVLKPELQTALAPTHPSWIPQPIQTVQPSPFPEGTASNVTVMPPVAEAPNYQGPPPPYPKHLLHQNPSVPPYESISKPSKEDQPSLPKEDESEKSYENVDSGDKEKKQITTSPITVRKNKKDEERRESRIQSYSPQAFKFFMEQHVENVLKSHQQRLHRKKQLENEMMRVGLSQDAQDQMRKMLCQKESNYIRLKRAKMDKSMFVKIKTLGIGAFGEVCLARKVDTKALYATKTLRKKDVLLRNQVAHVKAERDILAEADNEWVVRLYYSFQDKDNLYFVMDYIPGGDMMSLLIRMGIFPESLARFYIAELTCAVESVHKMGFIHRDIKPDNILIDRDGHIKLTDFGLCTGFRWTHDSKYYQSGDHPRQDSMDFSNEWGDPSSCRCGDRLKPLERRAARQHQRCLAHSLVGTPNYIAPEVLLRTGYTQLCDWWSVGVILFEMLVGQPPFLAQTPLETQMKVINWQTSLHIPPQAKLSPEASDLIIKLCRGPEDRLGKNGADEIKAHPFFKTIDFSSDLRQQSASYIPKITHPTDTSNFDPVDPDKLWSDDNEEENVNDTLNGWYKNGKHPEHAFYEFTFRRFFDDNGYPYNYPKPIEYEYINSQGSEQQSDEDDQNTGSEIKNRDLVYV

T1 sequence (Q9NRM7 whole entry, looked up, one chain of several): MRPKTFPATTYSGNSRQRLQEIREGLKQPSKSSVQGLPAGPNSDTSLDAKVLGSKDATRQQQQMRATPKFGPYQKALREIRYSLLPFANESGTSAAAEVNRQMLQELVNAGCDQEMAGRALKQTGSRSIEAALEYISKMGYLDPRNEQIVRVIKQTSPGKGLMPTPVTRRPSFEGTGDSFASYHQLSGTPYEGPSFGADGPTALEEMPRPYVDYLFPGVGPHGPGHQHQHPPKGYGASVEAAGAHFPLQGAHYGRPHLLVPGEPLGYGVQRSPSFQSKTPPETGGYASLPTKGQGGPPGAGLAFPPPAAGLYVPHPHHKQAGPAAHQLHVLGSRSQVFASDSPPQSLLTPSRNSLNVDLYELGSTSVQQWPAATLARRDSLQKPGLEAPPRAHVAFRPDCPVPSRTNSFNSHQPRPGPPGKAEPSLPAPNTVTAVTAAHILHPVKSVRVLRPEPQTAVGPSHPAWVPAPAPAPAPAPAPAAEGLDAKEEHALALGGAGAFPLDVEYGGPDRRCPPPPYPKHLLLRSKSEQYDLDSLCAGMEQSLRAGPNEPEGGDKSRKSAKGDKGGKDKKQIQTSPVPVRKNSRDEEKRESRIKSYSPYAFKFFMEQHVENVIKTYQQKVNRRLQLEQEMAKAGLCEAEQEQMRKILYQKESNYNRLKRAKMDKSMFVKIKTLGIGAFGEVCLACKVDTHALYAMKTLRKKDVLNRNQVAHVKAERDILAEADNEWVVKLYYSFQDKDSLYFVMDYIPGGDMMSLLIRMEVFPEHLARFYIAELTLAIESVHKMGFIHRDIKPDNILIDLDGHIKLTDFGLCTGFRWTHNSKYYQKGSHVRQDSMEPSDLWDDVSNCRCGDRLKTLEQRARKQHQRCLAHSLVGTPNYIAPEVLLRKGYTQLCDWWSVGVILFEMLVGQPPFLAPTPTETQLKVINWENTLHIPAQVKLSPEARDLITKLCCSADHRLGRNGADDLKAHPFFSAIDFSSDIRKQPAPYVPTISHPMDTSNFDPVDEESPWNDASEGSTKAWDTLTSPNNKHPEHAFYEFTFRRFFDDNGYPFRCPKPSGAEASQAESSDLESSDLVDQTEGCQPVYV

inhibition [1]: Active | inhibition [2]: Active | inhibition [3]: Active | Activity [4]: 57 to 97% | inhibition [5]: Active | inhibition [6]: Active | inhibition [7]: Active | inhibition [8]: Active | inhibition [9]: Active | inhibition [10]: Active | inhibition [11]: Active | inhibition [13]: Active | inhibition [14]: Active | inhibition [15]: Active | inhibition [16]: Active | inhibition [17]: Active | inhibition [18]: Active | inhibition [19]: Active
SMILES: CC(C)(O)CC(C)(C)Nc1nc(-c2ccncc2)nc2cnccc12
Activity [12]: 3870 /mm2

Activity [4]: 57 to 97%
SMILES: c1cc(-c2nc(NC3CCCC3)c3ccncc3n2)ccn1
Activity [12]: 1700 /mm2

SMILES: CC(C)(O)COCC(C)(C)Nc1nc(-c2ccncc2)nc2cnccc12
Activity (Oryctolagus cuniculus [20]): Active | Activity (Oryctolagus cuniculus [21]): Active | Drug uptake [22]: 178 pg | Drug uptake [23]: 7.32 to 14.4 nM

Activity [4]: 57 to 97%
SMILES: CCCNc1nc(-c2c[nH]nc2C(F)(F)F)nc2cnccc12
Activity [12]: 1890 /mm2

Activity [4]: 57 to 97%
SMILES: CCCNc1nc(-c2ccncc2)nc2cnccc12
Activity [12]: 3270 /mm2

SMILES: c1cc(-c2nc(NCCCc3nnn[nH]3)c3ccncc3n2)ccn1
fold change (FC) (Mus musculus [24]): 2.1 | fold change (FC) (Mus musculus [25]): 3.5 | fold change (FC) (Mus musculus [26]): 3.3

SMILES: CC1CCCC1Nc1nc(-c2ccncc2)nc2cnccc12 (configuration not stated)
Activity [4]: 57 to 97% | Activity [12]: 1630 /mm2

Activity [4]: 57 to 97%
SMILES: CC(C)(Nc1nc(-c2ccncc2Cl)nc2cnccc12)C(F)(F)F
Activity [12]: 1180 /mm2

Activity [4]: 57 to 97% | inhibition [8]: Active | Drug uptake [22]: 83 pg | Drug uptake [23]: 0.315 to 11 nM
SMILES: CC(C)(C)Nc1cc(-c2ccncc2)nc2cnccc12
fold change (FC) (Mus musculus [27]): 2.5 | fold change (FC) (Mus musculus [28]): 3.9 | fold change (FC) (Mus musculus [29]): 3.1 | Activity [12]: 4310 /mm2

Activity [4]: 57 to 97%
SMILES: CC(C)Nc1nc(-c2ccncc2)nc2cnccc12
Activity [12]: 3380 /mm2

IC50 [30]: > 2500 nM
SMILES: O=C(O)CCCNc1nc(-c2ccncc2)nc2cnccc12
